According to patent publication US8999890B2, “Signaling compositions, methods, and systems for effecting plant burndown and herbicide enhancement” (KamTec, priority 2013, dated 2015):
Where “and” joins values, the source holds several entries; their conditions need not be identical. Identical values can stand only once.

Key:
Type in all cases: in vivo
[1] = system: sunflower, Melody variety; assay: Sunflower seed soaking, field plots (Example XI); conditions: for % Moist: control 12.53; for Wt at 6% Moist: control 60.74; for Wt. at 6 % Moist: normalized to 6% seed moisture content
Text: In this preferred embodiment of the present invention, sunflower seeds were selected from the Melody variety and were soaked for three hours in solutions containing 0.05% Tween 20 and BMTA or BMPA, at a concentration of 3 ppm. Another group of seeds of the same variety was soaked in a solution with only in 0.05% Tween 20 added (control). Following soaking, seeds were desiccated to storage moisture contents and BMTA, BMPA and control seeds were sown in three twenty-five foot plots (Reps) each on May 21 (plots were arranged in a randomized block design). On September 16, sunflower heads were harvested, with a harvest of around 20 heads per plot/Rep on average. The heads were hand-threshed to collect seeds. Moisture, count, and weight data was collected on seeds from each head.

geranium slips = assay: Treatment of geranium slips (Example III)
Experimental: In this preferred embodiment of the present invention, according to common geranium cutting means, geraniums were slipped into 18 slips of similar length. In this example the slips had no flower buds. The slips were separated into four different sets: three slips each in three of the sets, and then nine slips in the final set. The slips are then treated with bio-regulator solutions formed from compositions from the different groups and water. In the first set, the slips were treated with BMVE solution; in the second set, the slips were treated with BMTA solution; in the third set, the slips were treated with BMIA in bromide solution; and, in the fourth set, the nine slips were treated with water.
The treatment with bio-regulator solution preferably occurs in the initial planting of the geranium slips, but can also occur at any time from the forming of the geranium slips up to and including the transplanting of the slips. The treatment can occur after transplanting, but this is not the preferred method. […]
The study associated with this embodiment is summarized in Table 3-A below, where Set 1 is the control group and Set 2 is the test group. […] The ratios for Table 3-C are calculated by totaling the heights grown by each slip in each set and comparing it to the control counterpart that was grown in similar environmental conditions, without the treatment of the bio-regulator solutions. […]

[2] = system: ‘M-202’ medium-grain rice (Oryza sativa L.); assay: Rice seed soaking treatment with NaCl irrigation (Example I)
Experimental: In another preferred embodiment of the present invention, seeds are soaked in prepared bio-regulator solutions for a period of three hours. Rice seeds were selected from ‘M-202’ medium-grain rice (Oryza sativa L.), (Reg. no 72) PI494105 type grains; this selection was meant to represent a typical California rice seed, and was not meant to be limiting. The bio-regulator solutions are prepared using 5 ppm BMTA solution with 0.05% v/v Kinetic® made by Helena Chemical Company. The solution was drained and the seeds planted in starter plastic containers with potting soil. After germination and having grown to 4 inches in height, the plants were transplanted into 6 inch diameter plastic containers. Two sets of three pots each were set up for this study; one set for the test group and one set for the control group. Both the control and test studies were irrigated with 1500 ppm NaCl solution from time of planting until the study was completed. The purpose of the NaCl irrigation was to determine the effect of the bio-regulator treatment in regards to salt tolerances.

[3] = system: aphid infestation on cotton Bt plant; assay: Cotton Bt seed soaking, aphid infestation (Example VII)
Experimental: In this preferred embodiment of the present invention, seeds were soaked for a period of 3 hours in the bio-regulator solution. Cotton Bt were selected and studied to determine if bio-regulator chemistry will enhance or influence the inserted Bt genes of the transgenic plant. The seeds were separated into two different sets on July 2. The first set, Set 1, was soaked in 5 ppm BMPA solution with 0.05% Kinetic®. The second set, Set 2, was soaked in water with 0.05% v/v Kinetic®. The solution was drained and the treated seeds planted in starter plastic trays. After germination and after the seedlings reached the height of four inches, the cotton Bt plants were transplanted into larger six-inch plastic containers. The cotton plants were placed outdoors for the duration of the study. The different sets of plants were regularly observed throughout this study.

‘M-202’ type rice = assay: Rice seed soaking treatment, 24 hours (Example II); conditions: for Biomass / Height / Tillering: 24 hrs soak, tap water irrigation, vs Set 1 (water)
Experimental: In this preferred embodiment of the present invention, seeds are soaked in prepared bio-regulator solutions for a period of 24 hours. Rice seeds were selected from the same ‘M-202’ type grains as in the previous study. The bio-regulator solutions were prepared using 5 ppm BMPA solution. The solution was drained and seeds planted in starter plastic containers filled with potting soil. After germination and plant growth reaching height of four inches, rice seedlings were transplanted from their greenhouse containers to six-inch diameter plastic containers and placed outdoor. Again, two sets of three pots for the control and test group were used.
These studies were also carried out using an increased amount of BMPA. The amount was increased from 1 ppm to 5 ppm, and the results of the study were similar to the results outlined in the paragraph above.

[4] = mean over the three Reps, control 65.47
[5] = mean over the three Reps, control 1062
[6] = mean over the three Reps, control 2676
[7] = per Rep (plot), 3 ppm, three hours soak
[8] = per Rep, estimate based on planting rate of 20,000 seeds/acre
[9] = BMTA soln. 5 ppm, 3 hours seed soak, NaCl soln. irrigation, vs Set 1 (tap water)

SMILES	% Moist ([1]; mean over the three Reps)	Wt at 6% Moist ([1]; mean over the three Reps)	Fresh Seed Wt. [1, 4]	Seed Count [1, 5]	Yield @ 20,000 Plants/Acre [1, 6]	% Moist (seed moisture content) [1, 7]	Fresh Seed Wt. [1, 7]	Seed Count [1, 7]	Yield @ 20,000 Plants/Acre [1, 8]	Wt. at 6 % Moist ([1]; per Rep)	further results
Cc1ccc(C(=O)OCCN(C)Cc2ccccc2)cc1 [BMTA]	13.64%	65.08	70.85 g	1108	2867 lbs	13.10% and 13.01% and 14.82%	77.35 gm and 73.58 gm and 61.64 gm	1226 and 1157 and 942	3147 lbs and 2989 lbs and 2464 lbs	71.43 and 67.86 and 55.94	% of Control (geranium slips; Day 11, total height vs water control slips): 186.49%; % of Control (geranium slips; Day 27, total height vs water control slips): 162.26%; Observed growth from planting through completion of the study ([2]; 5 ppm BMTA, 1500 ppm NaCl irrigation): enhanced growth; Biomass [2, 9]: ~3 x Set 1; Height [2, 9]: Same; Tillering [2, 9]: ~3 x Set 1
CN(CCOC(=O)COc1ccccc1)Cc1ccccc1 [BMPA]	13.27%	64.29	69.75 g	1071	2832 lbs	13.52% and 13.93% and 12.37%	78.24 gm and 65.01 gm and 65.99 gm	1185 and 977 and 1052	3171 lbs and 2617 lbs and 2708 lbs	71.99 and 59.42 and 61.46	Delay of the infestation of aphids on the cotton Bt plant ([3]; 5 ppm BMPA seed soak vs untreated): ≤ 19 days; Aphid infestation, Treated ([3]; 47 days after planting, 5 ppm BMPA, 3 hrs seed soak, control L-Aphid): No Aphid; Aphid infestation, Treated ([3]; 55 days after planting, control H-Aphid): No Aphid; Aphid infestation, Treated ([3]; 57 days after planting, control H-Aphid): L-Aphid; Aphid infestation, Treated ([3]; 74 days after planting, control Stressed): M-Aphid; Observed growth from planting through completion of the study (‘M-202’ type rice; 5 ppm BMPA, 24 hours soak): enhanced growth; Biomass (‘M-202’ type rice; BMPA 1 ppm): ~4 x Set 1; Height (‘M-202’ type rice; BMPA 1 ppm): ~1.2 x Set 1; Tillering (‘M-202’ type rice; BMPA 1 ppm): ~4 x Set 1; Biomass (‘M-202’ type rice; BMPA 5 ppm): ~4 x Set 1; Height (‘M-202’ type rice; BMPA 5 ppm): ~1.2 x Set 1; Tillering (‘M-202’ type rice; BMPA 5 ppm): ~4 x Set 1
